One series deals with IKB-α. Nature of the series: Bio-Plex phosphoprotein assay in JEG3 cells, IKB-α. The conditions noted are these: FIG. 12D. Type of series: cell-based, human. As to the method:
(§1) Cell lysates were analyzed for levels of phosphorylated Akt, p-38 MAPK, IκB-α or Erk1/2 using the Bio-Plex Phosphoprotein Assays (Bio-Rad Laboratories).
(§2) To further explore how these drugs may be acting together to enhance placental cell death, the inventors investigated the phosphorylation status of Akt, p38 mitogen-activated protein kinase (p38-MAPK), extracellular signal-regulated kinase 1/2 (ERK1/2) and IKappaB Kinase (IKB) in response to various treatments in JEG3 cells. These are key signaling molecules representing major downstream pathways of EGFR (Dutta PR & Maity A (2007) Cancer Lett 254:165-177).

For another series, the system named is syncytialised BeWo cells. Nature of the series: CellTiter-Blue cell viability assay, syncytialised (forskolin-treated) BeWo cells. Type of series: cell-based, human. The conditions noted are these: for BeWo cell death, single agent: CellTitre Blue, increasing doses, FIGS. 7B, 8B. As to the method: (§3) JEG-3 and BeWo cells were cultured in DMEM/F-12 medium containing L-glutamine (Invitrogen) supplemented with 10% fetal calf serum (ICP Biologicals). For treatments with methotrexate (Sigma) or Gefitinib (LC Laboratories) media was replaced with media containing 1% FCS.
(§4) Viability was analysed using the CellTiter-Blue® Cell Viability Assay (Promega).
(§5) Two different placenta-derived trophoblast-like human choriocarcinoma cell lines as well as isolated human first trimester extravillous trophoblast cells were incubated with methotrexate±gefitinib at various concentrations for 72 hours. […] The viability of the JEG-3, BeWo and primary first trimester extravillous trophoblast cells after treatment with methotrexate and gefitinib was assessed by the CellTiter-Blue® Cell Viability Assay.
(§6) JEG-3, BeWo and primary first trimester trophoblast cells were seeded at 5000 cells per well in 96-well plates in DMEM/F-12 culture medium containing 1% foetal bovine serum and 1% penicillin/streptomycin and incubated at 37° C. in a humidified atmosphere of 5% CO2. Approximately 40 hours after seeding, drugs were added to the cells in DMEM/F-12 containing 1% foetal bovine serum. A dose of 100 μM of methotrexate (JEG-3 and primary first trimester trophoblast cells) and 200 μM of methotrexate (syncytialised BeWo cells) was used because this dose decreased cell viability by approximately 50%, as observed in initial dose-response experiments. Cells treated with vehicle (DMSO) served as control cells. In all figures, data are expressed as means±SEM. One-way ANOVA and Student's t test were used to compare means between experimental groups. Statistical significance was assumed at P values<0.05. All experiments have been repeated at least twice.
The effect of combined addition of methotrexate and gefitinib on cell viability of syncytialised BeWo cells is shown in FIG. 3. […] Methotrexate and gefitinib were administered to syncytialised (forskolin-treated) BeWo cells and cell viability determined after 72 hours by CellTiter-Blue assay.
(The colour change of resazurin is a common sign of viable cells or microbes.)

The test system of another series is JEG3 cells. Nature of the series: xCELLigence real-time analysis of JEG3 cell growth. Type of series: cell-based, human. The conditions noted are these: for decrease in JEG3 growth (xCELLigence): FIG. 6B. As to the method: The Real-Time Cell Analyzer (RTCA) SP instrument (Roche Diagnostics GmbH) was placed in a humidified incubator maintained at 37° C. with 5% CO2. Cells were seeded at 625-40,000 cells per well in 96-well plates (E-plate 96, Roche Diagnostics GmbH) in medium containing 1% or 10% serum. Cells were initially monitored once every 2 min for 1 h and then once every hour. After addition of treatment, cells were monitored once every 10 min for 3 h and thereafter once every hour.
[…]. By taking continuous measurements, this assay also tracks cell growth longitudinally. […].

The subject of series [1] is subcutaneous JEG3 xenografts. Nature of the series: Subcutaneous JEG-3 xenograft model in SCID mice. Format: in vivo. As to conditions: i.p.; for xenograft tumour volume at the doses chosen for combination: MTX 0.04 mg/dose, gefitinib 0.5 mg/dose; for xenograft tumour volume, single agent at different doses: days 7 and 13 (FIG. 11: days 7, 10 and 13), FIGS. 10A, 10B, 11. How it is done: 5- to 6-week-old female SCID mice (C.B-17-Igh-1^b-Prkdc^scid; Animal Resources Centre, Perth, Australia) were inoculated with JEG-3 cells (10^6 in 100 μL PBS) subcutaneously. Mice were treated starting at day 7 after JEG-3 injection with gefitinib (0.5-2 mg per dose in 50 μL DMSO), methotrexate (0.04-0.4 mg per dose in 100 μL buffer) or respective vehicle (DMSO/buffer) per intraperitoneal injection (i.p.). Xenograft volume in cubic millimeters was determined using the formula (length×width^2)/2, where length was the longest axis and width was the measurement at right angles to the length. The mice were sacrificed after 19 days, at which time we excised the xenografts, weighed and measured them, and collected blood by cardiac puncture. hCG was quantified in mouse serum using the Elegance hCG ELISA assay (Bioclone). The animal study was reviewed and approved by the Monash University Animal Welfare Committee.
A subcutaneous JEG-3 xenograft model as established in SCID mice where 1×10^6 JEG-3 cells were injected into the flanks of mice.
Once palpable, xenograft growth was monitored by measuring tumour length and width every 3 days using digital callipers. Tumour volume in mm^3 was determined using the formula […], where length was the longest axis and width being the measurement at right angles to the length. Data are expressed as average tumour volume±SEM for each treatment group.
Mean tumour volume was monitored by digital calliper measurements every 3 days. Tumour volume was determined as described above.

The subject of a further series is JEG-3 cells. Nature of the series: CellTiter-Blue cell viability assay, JEG-3 cells. Type of series: cell-based, human. The conditions noted are these: for JEG3 cell death, single agent: CellTitre Blue, increasing doses, 48 and 72 hours, FIGS. 7A, 8A. As to the method: as §3, §4, §5, §6
For another series, the system named is ERK1/2. Nature of the series: Bio-Plex phosphoprotein assay in JEG3 cells, ERK1/2. As to conditions: FIG. 12C. Type of series: cell-based, human. How it is done: as §1, §2
For another series, the system named is p38 MAPK. Nature of the series: Bio-Plex phosphoprotein assay in JEG3 cells, p38 MAPK. The conditions noted are these: FIG. 12B. Type of series: cell-based, human. As to the method: as §1, §2
The test system of a further series is Akt. Nature of the series: Bio-Plex phosphoprotein assay in JEG3 cells, Akt. Type of series: cell-based, human. The conditions noted are these: JEG3 cells treated with EGF, FIG. 12A. As to the method: as §1, §2
For the next series, the system named is developing embryo. As to conditions: administered for 11 weeks to a person who conceived during a clinical trial; cited from earlier work.
Series [2] concerns caspase-cleaved cytokeratin 18. Nature of the series: M30 antibody apoptosis assay (FACS) in JEG3 cells. Format: cell-based, human. As to conditions: 72 hours, FIG. 13C. How it is done: Cell suspensions were fixed in ice-cold methanol overnight at −20° C., washed in PBS and stained with M30 CytoDeath mouse monoclonal antibody (Sapphire Biosciences), followed by ALEXA® 488-conjugated anti-mouse antibody (Invitrogen). Samples were analyzed on a BD FACS Canto II analyser (BD Biosciences).
Therefore, the inventors performed FACS sorting using the M30 antibody that detects caspase-cleaved cytokeratin 18, a marker of early apoptosis which persists in cells (Ueno T et al., (2005) Biomed Pharmacother 59 Suppl 2, S359-362). […]. The inventors conclude that combination treatment may increase apoptosis in placental cells.

The next series deals with T1, EGFR (Homo sapiens, UniProt P00533).
T1 construct: endogenous in cells; host or cells: JEG3 cells
Nature of the series: Western blot of EGF induced EGFR phosphorylation in JEG3 cells. Type of series: cell-based. As to conditions: pre-incubation of JEG3 cells, FIG. 5. As to the method:
Cells were trypsinised, washed and lysed in RIPA buffer (50 mM Tris, 150 mM NaCl, 1% triton, 0.1% SDS, 1 mM EDTA, 0.1% sodium deoxycholate, protease inhibitor cocktail, sodium vanadate) for 10 min prior to 15 min sonication and centrifugation at 4° C. to remove cellular debris. Lysates were resolved by reducing SDS-PAGE and transferred to PVDF membranes using the iBlot dry transfer system (Invitrogen).

Series [3] relates to primary first trimester extravillous trophoblast cells. Nature of the series: CellTiter-Blue cell viability assay, primary first trimester extravillous trophoblast cells. Type of series: cell-based. As to conditions: Homo sapiens, 100 μM methotrexate, initial dose-response experiments, read-out: decrease in cell viability.
From the text: 1st trimester placenta was collected from healthy women undergoing elective termination of pregnancy (amenorrhea: 8-10 weeks). This research protocol, including written consent from patients, was approved by the Southern Health Human Research and Ethics Committee. From the 1st trimester placental tissue, primary cytotrophoblast was isolated as previously described (Cartwright J E et al., (2002) Placenta 23:232-235). The inventors confirmed the purity of primary cytotrophoblast cells by immunocytochemistry for cytokeratin 7 as previously described (Paiva P et al., (2007) Endocrinology 148:5566-5572).
as §4
Two different placenta-derived trophoblast-like human choriocarcinoma cell lines as well as isolated human first trimester extravillous trophoblast cells were incubated with methotrexate±gefitinib at various concentrations for 72 hours. […] The viability of the JEG-3, BeWo and primary first trimester extravillous trophoblast cells after treatment with methotrexate and gefitinib was assessed by the CellTiter-Blue® Cell Viability Assay. […]
Importantly, the efficacy of methotrexate±gefitinib was also assessed in primary human extravillous trophoblast cells isolated from first trimester placenta.

Entries after “also recorded” stand apart in the source; their conditions may differ.

T1 sequence (P00533 25-1210): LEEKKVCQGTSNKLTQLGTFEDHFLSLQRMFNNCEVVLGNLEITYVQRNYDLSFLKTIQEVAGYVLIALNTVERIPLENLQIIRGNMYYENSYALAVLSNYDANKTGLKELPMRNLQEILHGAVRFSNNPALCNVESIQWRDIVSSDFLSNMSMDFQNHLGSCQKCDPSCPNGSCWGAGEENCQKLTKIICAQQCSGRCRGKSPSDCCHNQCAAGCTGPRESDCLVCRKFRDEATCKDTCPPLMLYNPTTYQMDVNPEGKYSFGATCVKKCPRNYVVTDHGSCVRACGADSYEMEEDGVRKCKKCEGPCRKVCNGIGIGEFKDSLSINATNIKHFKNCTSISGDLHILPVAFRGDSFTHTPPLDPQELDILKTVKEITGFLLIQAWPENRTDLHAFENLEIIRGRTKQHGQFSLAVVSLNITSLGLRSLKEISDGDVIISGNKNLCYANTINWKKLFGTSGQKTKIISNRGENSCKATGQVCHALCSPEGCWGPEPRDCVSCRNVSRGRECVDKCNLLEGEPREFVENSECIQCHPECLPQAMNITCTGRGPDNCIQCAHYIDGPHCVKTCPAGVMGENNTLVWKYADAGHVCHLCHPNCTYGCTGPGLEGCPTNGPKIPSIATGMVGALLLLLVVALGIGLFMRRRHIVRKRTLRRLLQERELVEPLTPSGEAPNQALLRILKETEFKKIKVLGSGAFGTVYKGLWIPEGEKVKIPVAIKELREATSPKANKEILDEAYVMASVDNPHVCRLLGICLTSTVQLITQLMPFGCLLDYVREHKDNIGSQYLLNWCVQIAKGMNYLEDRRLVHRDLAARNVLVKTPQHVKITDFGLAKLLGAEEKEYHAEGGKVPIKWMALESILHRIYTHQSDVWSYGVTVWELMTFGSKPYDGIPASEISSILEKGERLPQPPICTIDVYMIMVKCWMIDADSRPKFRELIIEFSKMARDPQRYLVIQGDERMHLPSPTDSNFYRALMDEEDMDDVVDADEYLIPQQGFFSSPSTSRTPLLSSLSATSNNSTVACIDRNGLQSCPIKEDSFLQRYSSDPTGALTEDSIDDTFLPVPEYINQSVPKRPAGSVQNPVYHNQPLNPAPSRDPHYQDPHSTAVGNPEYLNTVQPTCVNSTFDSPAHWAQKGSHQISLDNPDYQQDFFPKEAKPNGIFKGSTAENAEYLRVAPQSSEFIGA

Regarding `COc1cc2ncnc(Nc3ccc(F)c(Cl)c3)c2cc1OCCCN1CCOCC1` [gefitinib, N-(3-chloro-4-fluorophenyl)-7-methoxy-6-(3-morpholinopropoxy)quinazolin-4-amine], in the series with IKB-α, the “EGF induced IKB-α phosphorylation” value is “potently blocked”. In addition, the “BeWo cell death, single agent” value in the series on syncytialised BeWo cells is “little or no cell death”. In addition, the “decrease in JEG3 growth (xCELLigence)” value in the series with JEG3 cells (gefitinib 8 μM) is “small and transient”; with JEG3 cells (gefitinib 2 or 4 μM), “no”. Further, in series [1], the “xenograft tumour volume at the doses chosen for combination” value is recorded as “some reduction”. Further, in series [1], the “xenograft tumour volume, single agent at different doses” value is reported as “potent dose dependent reductions; also recorded: regresses”. In addition, the “JEG3 cell death, single agent” value in the series on JEG-3 cells was “not”; in the series on JEG-3 cells (listed as Gefitinib), “little or no cell death”. For the same compound, the “EGF induced ERK1/2 phosphorylation” value in the series with ERK1/2 was “potently blocked”. The “EGF induced p38-MAPK phosphorylation” value with p38 MAPK is listed as “potently blocked”. Moreover, the Akt phosphorylation result with Akt is listed as “potently blocked”.

On to `CS(=O)(=O)CCNCc1ccc(-c2ccc3ncnc(Nc4ccc(OCc5cccc(F)c5)c(Cl)c4)c3c2)o1` [lapatinib], for which the “effects on the developing embryo” value in the series with developing embryo is listed as “no ill effects on the developing embryo”.

Regarding `CN(Cc1cnc2nc(N)nc(N)c2n1)c1ccc(C(=O)N[C@@H](CCC(=O)O)C(=O)O)cc1` [methotrexate], the “M30 staining (caspase-cleaved cytokeratin 18, early apoptosis)” value in series [2] was “increased expression”. In the series with syncytialised BeWo cells, the “BeWo cell death, single agent” value is given as “in a dose dependent manner”. Also, the cytotoxicity at 200 µM in the series on syncytialised BeWo cells (Homo sapiens, 200 μM methotrexate, syncytialised BeWo cells, initial dose-response experiments, read-out: decrease in cell viability) is ~50%. Further, in the series on JEG3 cells (FIG. 6, combination: gefitinib doses added to a fixed dose of MTX), the “JEG3 cell growth (xCELLigence)” value was “decreased JEG3 cell growth in a dose dependent manner”. Further, the “xenograft tumour volume at the doses chosen for combination” value in series [1] was “some reduction”. In addition, the “xenograft tumour volume, single agent at different doses” value in series [1] (listed as MTX) is reported as “decrease in xenograft tumour volume was observed with increasing doses”; in series [1] (listed as Methotrexate (MTX)) it was “regresses”. Besides, the “JEG3 cell death, single agent” value with JEG-3 cells (listed as MTX) is listed as “in a dose dependent manner”; with JEG-3 cells (listed as methotrexate (MTX)) it was “kills JEG3 cells in a dose response manner”. Further, the cytotoxicity at 100 µM in the series on JEG-3 cells (Homo sapiens, 100 μM methotrexate, JEG-3 cells, initial dose-response experiments, read-out: decrease in cell viability) was ~50%; in series [3], ~50%. Besides, the “EGF induced EGFR phosphorylation” value at EGFR was “partially inhibited”. The Akt phosphorylation entry in the series on Akt is listed as “significant increase”.

Source of the values: patent US8858939B2, “Ectopic pregnancy treatment” (Monash University, priority 2009, dated 2014).
